What was measured:
H9c2 cells = test: MTT cell viability of H9c2 cells, co-treatment with DOX; type: cell-based, rat
Method: To identify whether ginsentides can attenuate DOX-induced cardiotoxicity in cardiomyocytes, cell viability after drug treatment was measured by MTT assay.
After 24 h co-treatment of DOX with ginsentides, the viability of H9c2 cells was enhanced by ˜20% compared to the DOX-alone treatment (FIG. 43.).

α1-adrenergic receptor = test: Phenylephrine-induced aortic ring contraction, isometric tension, ex vivo; parameters: species or system rat; conditions: thoracic aorta pre-contracted with phenylephrine (0.1 μM)
isolated thoracic aorta = test: KCl-induced aortic ring contraction, isometric tension, ex vivo; parameters: species or system rat; conditions: thoracic aorta pre-contracted with KCl (30 mM)
[1] = test system: human endothelial cells (HUVEC-CS); test: Cellular NO synthesis in HUVEC-CS (DAF-2 DA staining); type: cell-based
[2] = Heparin HPLC affinity column; type: binding
Source text: Heparin-binding properties of ginsentides using heparin HPLC affinity column.

| Compound | Protective effects on cardiomyocytes during DOX-treatment (H9c2 cells) | Relaxation of phenylephrine-induced aortic ring contraction (α1-adrenergic receptor) | Relaxation of KCl-induced contracted aortic ring (isolated thoracic aorta) | Cellular NO release compared among ginsentides [1] | Retention in heparin HPLC affinity column [2] |
| --- | --- | --- | --- | --- | --- |
| CC(C)=CCC[C@](C)(O[C@@H]1O[C@H](CO[C@@H]2O[C@H](CO)[C@@H](O)[C@H](O)[C@H]2O)[C@@H](O)[C@H](O)[C@H]1O)[C@H]1CC[C@]2(C)[C@@H]1[C@H](O)C[C@@H]1[C@@]3(C)CC[C@H](O[C@@H]4O[C@H](CO)[C@@H](O)[C@H](O)[C@H]4O[C@@H]4O[C@H](CO)[C@@H](O)[C@H](O)[C@H]4O)C(C)(C)[C@@H]3CC[C@]12C [ginsenoside Rb1] | did not showed any protective effects | – | – | – | – |
| CC(C)=CCC[C@](C)(O[C@@H]1O[C@H](CO)[C@@H](O)[C@H](O)[C@H]1O)[C@H]1CC[C@]2(C)[C@@H]1[C@H](O)C[C@@H]1[C@@]3(C)CC[C@H](O)C(C)(C)[C@@H]3[C@@H](O[C@@H]3O[C@H](CO)[C@@H](O)[C@H](O)[C@H]3O[C@@H]3O[C@@H](C)[C@H](O)[C@@H](O)[C@H]3O)C[C@]12C [ginsenoside Re] | did not showed any protective effects | – | – | – | – |
| CC(C)=CCC[C@](C)(O[C@@H]1O[C@H](CO)[C@@H](O)[C@H](O)[C@H]1O)[C@H]1CC[C@]2(C)[C@@H]1[C@H](O)C[C@@H]1[C@@]3(C)CC[C@H](O)C(C)(C)[C@@H]3[C@@H](O[C@@H]3O[C@H](CO)[C@@H](O)[C@H](O)[C@H]3O)C[C@]12C [ginsenoside Rg1] | did not showed any protective effects | – | – | – | – |
| CISSGGWCGFD-LHGCCG--NCGCLV--GFCYGTGC- (CISSGGWCGFDLHGCCGNCGCLVGFCYGTGC; listed as Panax quinquefolius) [Ginsentide TP8] | – | relaxes phenylephrine-induced aortic ring contraction | not KCI-induced contracted aortic ring | comparable cellular NO release | – |
| CKSAGTWCGFD-PHGCCG--SCGCLV--GFCYGVSC- (CKSAGTWCGFDPHGCCGSCGCLVGFCYGVSC; Panax ginseng) [Ginsentide TP3] | – | relaxes phenylephrine-induced aortic ring contraction | not KCI-induced contracted aortic ring | comparable cellular NO release | retented in a heparin HPLC affinity column |
| CKSGGSWCGFD-PHGCCG--NCGCLV--GFCYGTGC- [Ginsentide TP9] | – | – | – | – | retented in a heparin HPLC affinity column |

— patent US11174298B2, “Preparation and use of ginsentides and ginsentide-like peptides” (priority 2016, dated 2021)
